The values below come from US20250135072A1, “COMPOSITIONS COMPRISING A BIOABSORBABLE POLYMER AND METABOLIC INHIBITOR” (Board of Trustees of Michigan State University, priority 2022, published 2025).

For data set [1], the system named is primary macrophages (BMDMs). Briefly: Cytokine and chemokine protein levels in macrophage supernatants (MILLIPLEX multiplex, IL-6 ELISA). The class given is cell-based, mouse. As to conditions: for abnormally increased levels of IL-1β / abnormally increased levels of IL-6 / abnormally increased levels of MCP-1 / abnormally increased levels of TNF-α: macrophages exposed to PLA extract plus inhibitor. The method, then:
Cytokine and chemokine levels were measured using a MILLIPLEX MAP mouse magnetic bead multiplex kit (MilliporeSigma) to assess for IL-6, MCP-1, TNF-a, IL-1b, IL-4, IL-10, IFN-1 and 1L-13 protein expression in supernatants. Data was acquired using Luminex 200 (Luminex Corporation) by the xPONENT software (Version 3.1, Luminex Corporation). […] For statistical analyses, those values were expressed as 3.1 pg/mL. Values exceeding the dynamic range of the assay, in accordance with manufacturer's instruction, were excluded. Additionally, IL-6 ELISA kits (RayBiotech) for supernatants were used according to manufacturer's instructions.

Data set [2] can be described thus: In-vitro studies indicating effective concentration of 2DG. Type of data set: cell-based. The method, then:
Amorphous PLA was compounded with 2DG at 190° C. for 3 mins in a DSM 15 cc mini-extruder (DSM Xplore) and pelletizer (Leistritz Extrusion Technology). Our in-vitro studies indicate 1 mM 2DG to be an effective concentration. Accordingly, we estimated that 18 mg of 2DG in 10 g of amorphous PLA will approximate effective concentrations after accounting for potential thermal degradation of 2DG, converting mM to w/w values. […] To exclude the effect of melt-blending as a confounder in our studies, amorphous PLA controls were processed under the same thermal conditions to make “reprocessed” amorphous PLA. Pellets from melt-blending were made into 1.75 mm diameter filaments using an extruder (Filabot EX2) at 170° C. with air set at 93. For surgical implantation, amorphous PLA filaments were cut into 1 mm lengths; four biomaterials were subcutaneously implanted on the dorsum (back) of each mouse, with two cranially (2.5 cm apart) and two caudally (2.5 cm apart).

Data set [3] relates to primary BMDMs. Briefly: Crystal violet cell viability / cell number assay in primary BMDMs. The class given is cell-based, mouse. Particulars: BMDMs treated with amorphous or crystalline PLA extract. The method, then:
Breakdown products of PLA (hereafter “extracts”) were generated in serum-containing media and used after twelve days of incubation in a shaker at 37° C. […] Immune cells were maintained in the PLA extracts for twelve days. BMDMs derived from C57BL/6J mice (Jackson Laboratories) of 3-4 months were used. Mouse embryonic fibroblasts (NIH 3T3 cells, hereafter “MEFs”) were stably transfected with a Sleeping Beauty transposon plasmid (pLuBIG) encoding blasticidin resistance linked to eGFP, and luciferase. Bioluminescence of the fibroblasts served as in indicator of ATP levels. Cell viability was measured using the crystal violet staining assay at room temperature. 50 μL media containing cells is incubated with 150 μL of 99.9% methanol for 15 minutes. 100 μL of 0.5% crystal violet (25% methanol) is added for 20 minutes. Each well is emptied and washed twice with 200 μL phosphate buffered saline for 2 minutes. Absorbance (optical density) was acquired at 570 nm using the SpectraMax M3 Spectrophotometer (Molecular Devices) and SoftMax Pro software (ver. 7.0.2).

Data set [4] relates to primary BMDMs. The data set is described as follows: Seahorse assays (OCR, ECAR, PER) in primary BMDMs. As to conditions: for metabolic reprogramming: BMDMs exposed to amorphous or crystalline PLA extract, dose-dependent; for ECAR / OCR / PER: Example 2, BMDMs exposed to PLA extracts of varied stereochemistries plus inhibitor. The class given is cell-based, mouse. From the text: To determine the metabolic pathways responsible for the observed bioenergetic changes, Seahorse assays were used to measure oxygen consumption rate (OCR), extracellular acidification rate (ECAR) and lactate-linked proton efflux rate (PER) in a customized medium (pH 7.4). Basal measurements of OCR, ECAR, and PER were obtained in real time using the Seahorse XFe-96 Extracellular Flux Analyzer (Agilent Technologies). Prior to running the assay, cell culture medium was washed with and replaced by the Seahorse XF DMEM medium (pH 7.4) supplemented with 25 mM D-glucose and 4 mM glutamine. The Seahorse plates were equilibrated in a non-CO2 incubator for an hour prior to the assay. The Seahorse ATP rate and cell energy phenotype assays were run according to manufacturer's instruction and all reagents for the Seahorse assays were sourced from Agilent Technologies. Wave software (Version 2.6.1) was used to export Seahorse data directly as means±standard deviation (SD).
Seahorse assays measures ECAR as an index of glycolytic flux, OCR as an index of oxidative phosphorylation and PER as an index of monocarboxylate transporter function in live cells; and are used to assess for metabolic reprogramming. Primary BMDMs exposed to amorphous PLA extract were metabolically altered, showing a 2-fold increase in oxidative phosphorylation (OCR; FIG. 10), 3.5-fold increase in glycolytic flux (ECAR; FIG. 11) and 3.5-fold increase in monocarboxylate transporter activity (PER; FIG. 12) in comparison to untreated BMDMs.

Data set [5] deals with Mouse embryonic fibroblasts (NIH 3T3 cells). Briefly: ATP levels in MEFs (luciferase bioluminescence in live cells; standard ATP assay on lysates). Type of data set: cell-based. Particulars: for Total ATP levels in MEFs: MEFs exposed to each of PLLA, PDLA and stereocomplex PLA extracts plus inhibitor; for increased bioenergetic (ATP) levels: amorphous or crystalline PLA extract-treated fibroblasts plus inhibitor, spatiotemporal and dose-dependent. How it is done:
Breakdown products of PLA (hereafter “extracts”) were generated in serum-containing media and used after twelve days of incubation in a shaker at 37° C. The in vitro degradation mimics PLA degradation in vivo. Immune cells were maintained in the PLA extracts for twelve days. BMDMs derived from C57BL/6J mice (Jackson Laboratories) of 3-4 months were used. Mouse embryonic fibroblasts (NIH 3T3 cells, hereafter “MEFs”) were stably transfected with a Sleeping Beauty transposon plasmid (pLuBIG) encoding blasticidin resistance linked to eGFP, and luciferase. Bioluminescence of the fibroblasts served as in indicator of ATP levels. Cell viability was measured using the crystal violet staining assay at room temperature. 50 μL media containing cells is incubated with 150 μL of 99.9% methanol for 15 minutes. 100 μL of 0.5% crystal violet (25% methanol) is added for 20 minutes. Each well is emptied and washed twice with 200 μL phosphate buffered saline for 2 minutes. Absorbance (optical density) was acquired at 570 nm using the SpectraMax M3 Spectrophotometer (Molecular Devices) and SoftMax Pro software (ver. 7.0.2).
To exclude the possibility that changing luciferase expression (by transcription or translation) was responsible for observed bioenergetic changes, wild-type cells were lysed after exposure to PLA extract. Controlled amounts of luciferase and D-luciferin were added to the standard ATP assay. By day 12, there was a 1.9-and 2.3-fold increase in ATP levels among cells exposed to crystalline and amorphous PLA extract, respectively (FIG. 2). To exclude the possibility that PLA extracts affect the biochemical reaction underlying bioenergetic measurements, lysed fibroblasts were exposed to D-luciferin, luciferase and control or PLA extract.
ATP levels in live cells were assessed by bioluminescence on the IVIS Spectrum in vivo imaging system (PerkinElmer) after addition of 150 μg/mL D-luciferin (PerkinElmer). For lysed cells, the standard ATP/ADP kits (Sigma-Aldrich) were used according to manufacturer's instructions.

Setting [6] is: macrophages exposed to the PLLA and PDLA extracts plus inhibitor.
[7] abbreviates: BMDMs, prolonged (day 7) exposure to L-lactic acid.

Where only a bound is given, the exact number is not on record here.

As to `O=CC[C@@H](O)[C@H](O)[C@H](O)CO` [2DG, 2-deoxyglucose], in data set [1], the “abnormally increased levels of IL-1β” value is given as “modulated”, the “abnormally increased levels of IL-6” value is listed as “modulated”, the “abnormally increased levels of MCP-1” value is “modulated” and the “abnormally increased levels of TNF-α” value is “modulated”. Moreover, the IL-10 levels result in data set [1] (setting [6]) is reported as “increased”. Besides, the effective concentration in data set [2] was found to be 1 mM. For the same molecule, the cell viability entry with primary BMDMs [3] is “selectively reduced”. Moreover, in the data set on primary BMDMs [4], the metabolic reprogramming result is “inhibited”, the ECAR entry is on record as “dose-dependent decrease”, the OCR entry was “dose-dependent decrease” and the PER entry is “dose-dependent decrease”. Also, in data set [5], the “Total ATP levels in MEFs” value was “decreased” and the “increased bioenergetic (ATP) levels” value is recorded as “inhibited”.
On to `O=C(C=Cc1cccnc1)c1ccncc1` [3PO, 3-(3-pyridinyl)-1-(4-pyridinyl)-2-propen-1-one], for which the cytokine values in data set [1] (in some experiments) is below 3.2 pg/mL. In addition, in data set [1], the “abnormally increased levels of IL-1β” value is “modulated”, the “abnormally increased levels of IL-6” value is on record as “modulated”, the “abnormally increased levels of MCP-1” value is “modulated” and the “abnormally increased levels of TNF-α” value is given as “modulated”. Also, in the data set with primary BMDMs [3], the cell viability result is on record as “selectively reduced”. Moreover, in the data set with primary BMDMs [4], the metabolic reprogramming result is given as “inhibited”, the ECAR result was “dose-dependent decrease”, the OCR result is recorded as “dose-dependent decrease” and the PER result is given as “dose-dependent decrease”. In data set [5], the “Total ATP levels in MEFs” value was “decreased” and the “increased bioenergetic (ATP) levels” value is listed as “inhibited”.
Consider `C[C@H](O)C(=O)O` [L-lactic acid], for which the “increase in IL-6 protein expression” value in data set [1] (compared to untreated macrophages) is on record as 2.3 fold. Besides, in the data set with primary BMDMs [4] (setting [7]), the “increase in glycolytic flux (ECAR)” value came out at 2.8 fold, the “increase in monocarboxylate transporter function (PER)” value came to 2.8 fold and the “increase in oxidative phosphorylation (OCR)” value was found to be 2.3 fold.
Regarding `NOCC(=O)O` [aminooxyacetic acid], in data set [1] (amorphous PLA extract plus inhibitor, relative to macrophages exposed to PLA extract), the “increase in IL-10 expression” value is given as 3.4 fold. Moreover, the IL-10 expression entry in data set [1] (crystalline PLA extract plus inhibitor, relative to macrophages exposed to PLA extract) is “unchanged”. For the same molecule, in data set [1], the “abnormally increased levels of IL-1β” value was “modulated”, the “abnormally increased levels of IL-6” value is “modulated”, the “abnormally increased levels of MCP-1” value is listed as “modulated” and the “abnormally increased levels of TNF-α” value was “modulated”. The IL-10 levels entry in data set [1] (setting [6]) is given as “increased”. Besides, the IL-10 levels entry in data set [1] (macrophages treated with stereocomplex PLA extracts plus inhibitor) is recorded as “further increased”. Besides, in the data set on primary BMDMs [3], the cell viability entry is given as “selectively reduced”. In the data set on primary BMDMs [4], the metabolic reprogramming result is recorded as “inhibited”, the ECAR result is recorded as “dose-dependent decrease”, the OCR result is given as “dose-dependent decrease” and the PER result is “dose-dependent decrease”. In data set [5], the “Total ATP levels in MEFs” value was “decreased” and the “increased bioenergetic (ATP) levels” value is “inhibited”.
